Source: patent US9895338B1, “Cobalt-polypyridyl complex for treatment of cancer, a pharmaceutical composition and a kit comprising it” (Macau University of Science and Technology, priority 2016, dated 2018)

How the values were obtained:
[1] = Body weight in mouse lung cancer xenograft model; type: in vivo; conditions: IP 40 mg/kg/day, tumor-bearing mice
Text: The mice were maintained under specific pathogen-free condition in a 12-h light-dark cycle. Experimental conditions were followed in accordance to the “Institutional AnimalCare and User Committee guidelines” of the Macau University of Science and Technology. Xenograft mouse model was constructed as previously described (Wong, V. K. et al., Oncotarget, 2016, 7, 9907-9924). LLC-1 Lewis lung cancer cells (1×10^6 cells) were subcutaneously injected in the right dorsal region of the mice. After tumors grew to about 100 mm^3, the mice were randomly divided into 3 groups: 1) the control group, 2) 40 mg/kg cobalt-polypyridyl complex of Formula (IV) group, and 3) 40 mg/kg cobalt-polypyridyl complex of Formula (IV) as chloride, also referenced as (IV)-Cl (water soluble form) group. The cobalt-polypyridyl complex of Formula (IV) was dissolved in 100 μL buffer (PEG400:EtOH:ddH2O=6:1:3), whereas (IV)-Cl (water soluble form) was dissolved in ddH2O. The complexes were then intraperitoneal injected in mice every day. The body weight of each mouse was recorded with the tumor volume determined by Vernier caliper using the formula of L×W^2×0.52, where L is the longest diameter of tumor and W is the shortest diameter of tumor. Mice with tumor implants were sacrificed after 10 days when the tumor size of vehicle control group reached above 1000 mm^3 due to animal ethical issue.

[2] = test system: cisplatin-sensitive SGC-7901 gastric cancer cells; experiment: MTT cytotoxicity, cisplatin-sensitive SGC-7901; type: cell-based; conditions: SGC-7901, MTT, 72 h
Experimental: (§1) All prepared cobalt-polypyridyl complexes were dissolved in DMSO at a final concentration of 50 mmol/L and stored at −20° C. before use. Cytotoxicity was assessed by using the 3-(4,5-dimethylthiazol-2-yl)-2,5-diphenyltetrazolium bromide (MTT) (5.0 mg/ml) assay as previously described (Wong, V. K. et al., Cell Death Dis, 2013, 4, e720). Briefly, 4×10^3 cells per well were seeded in 96-well plates before drug treatments. After overnight culture, the cells were then exposed to different concentrations of selected compounds (0.039-100 μmol/L) for 72 h. Cells without drug treatment were used as control. Subsequently, MTT (10 μL) solution was added to each well and incubated at 37° C. for 4 h followed by the addition of 100 μL solubilization buffer (10% SDS in 0.01 mol/L HCl) and overnight incubation. A570 nm was then determined in each well on the next day. The percentage of cell viability was calculated using the following formula: Cell viability (%)=Atreated/Acontrol×100. Data were obtained from three independent experiments.

H1975 (lung cancer) = experiment: MTT cytotoxicity assay, H1975; type: cell-based; conditions: 72 h
Experimental: as §1, with “experiments. Cells include HeLa cells (cervical cancer), MCF-7 (breast cancer), H1299, H1975, A549 and LLC-1 (lung cancer), HepG2 and Hep3B (liver cancer) and LO2 (normal human hepatocytes).” for “experiments.”

[3] = test system: HeLa cells (cervical cancer); experiment: MTT cytotoxicity assay, HeLa; type: cell-based; conditions: 72 h
Experimental: as §1, with “experiments. Cells include HeLa cells (cervical cancer), MCF-7 (breast cancer), H1299, H1975, A549 and LLC-1 (lung cancer), HepG2 and Hep3B (liver cancer) and LO2 (normal human hepatocytes).” for “experiments.”

[4] = test system: OV2008/C13 cervical cancer cells; experiment: MTT cytotoxicity, OV2008/C13 (cisplatin-resistant); type: cell-based
Experimental: as §1
(§2) Cisplatin-sensitive or -resistant A2780, OV2008 and C13 cancer cells were provided by Prof. Benjamin Tsang (Department of Obstetrics and Gynecology and Department of Cellular and Molecular Medicine, University of Ottawa, Canada). HCT116 p53^+/+ and p53^−/− isogenic human colon cancer cells were provided by Professor Bert Vogelstein (Ludwig Center at Johns Hopkins, Howard Hughes Medical Institute, USA). All media were supplemented with 10% fetal bovine serum and the antibiotics penicillin (50 U/ml) and streptomycin (50 μg/ml; Invitrogen, Paisley, Scotland, UK). All cell cultures were incubated at 37° C. in a 5% humidified CO2 incubator.

[5] = test system: Taxol-sensitive A549 cancer cells; experiment: MTT cytotoxicity, taxol-sensitive A549; type: cell-based; conditions: 72 h
Experimental: as §1

MCF-7 (breast cancer) = experiment: MTT cytotoxicity assay, MCF-7; type: cell-based; conditions: MCF-7, MTT, 72 h
Experimental: as §1, with “experiments. Cells include HeLa cells (cervical cancer), MCF-7 (breast cancer), H1299, H1975, A549 and LLC-1 (lung cancer), HepG2 and Hep3B (liver cancer) and LO2 (normal human hepatocytes).” for “experiments.”

LLC-1 (lung cancer) = experiment: MTT cytotoxicity assay, LLC-1; type: cell-based; conditions: LLC-1, MTT, 72 h
Experimental: as §1, with “experiments. Cells include HeLa cells (cervical cancer), MCF-7 (breast cancer), H1299, H1975, A549 and LLC-1 (lung cancer), HepG2 and Hep3B (liver cancer) and LO2 (normal human hepatocytes).” for “experiments.”

[6] = test system: HCT116 p53^−/− colon cancer cells; experiment: MTT cytotoxicity, HCT116 p53-/-; type: cell-based, human
Experimental: as §1, §2

[7] = test system: cisplatin-resistant A2780 ovarian cancer cells; experiment: MTT cytotoxicity, cisplatin-resistant A2780; type: cell-based
Experimental: as §1, §2

[8] = test system: cisplatin-resistant SGC-7901 gastric cancer cells; experiment: MTT cytotoxicity, cisplatin-resistant SGC-7901; type: cell-based
Experimental: as §1
(§3) All cells were obtained from the American Type Culture Collection (Rockville, Md., USA) unless otherwise specified. Immortalized wild-type and Atg7-deficient mouse embryonic fibroblasts (MEFs) were provided by Professor Masaaki Komatsu (Juntendo University, School of Medicine, Japan). Taxol-resistant types of A549, MCF-7, HCT-8 cancer cells, cisplatin-resistant SGC7901 cancer cells were purchased from KeyGEN BioTECH, China.

[9] = test system: HCT116 p53^+/+ colon cancer cells; experiment: MTT cytotoxicity, HCT116 p53+/+; type: cell-based, human; conditions: 72 h
Experimental: as §1, §2

[10] = test system: Taxol-sensitive HCT8 cancer cells; experiment: MTT cytotoxicity, taxol-sensitive HCT8; type: cell-based; conditions: 72 h
Experimental: as §1

A549 (lung cancer) = experiment: MTT cytotoxicity assay, A549; type: cell-based; conditions: 72 h
Experimental: as §1, with “experiments. Cells include HeLa cells (cervical cancer), MCF-7 (breast cancer), H1299, H1975, A549 and LLC-1 (lung cancer), HepG2 and Hep3B (liver cancer) and LO2 (normal human hepatocytes).” for “experiments.”

[11] = test system: cisplatin-sensitive A2780 ovarian cancer cells; experiment: MTT cytotoxicity, cisplatin-sensitive A2780; type: cell-based; conditions: 72 h
Experimental: as §1, §2

[12] = test system: Taxol-resistant HCT8 cancer cells; experiment: MTT cytotoxicity, taxol-resistant HCT8; type: cell-based
Experimental: as §1, §3

[13] = test system: Taxol-resistant A549 cancer cells; experiment: MTT cytotoxicity, taxol-resistant A549; type: cell-based
Experimental: as §1, §3

[14] = test system: Taxol-sensitive MCF-7 cancer cells; experiment: MTT cytotoxicity, taxol-sensitive MCF-7; type: cell-based; conditions: MCF-7, MTT, 72 h
Experimental: as §1

[15] = test system: OV2008 cervical cancer cells; experiment: MTT cytotoxicity, OV2008 (cisplatin-sensitive); type: cell-based; conditions: 72 h
Experimental: as §1, §2

H1299 (lung cancer) = experiment: MTT cytotoxicity assay, H1299; type: cell-based, human; conditions: 72 h
Experimental: as §1, with “experiments. Cells include HeLa cells (cervical cancer), MCF-7 (breast cancer), H1299, H1975, A549 and LLC-1 (lung cancer), HepG2 and Hep3B (liver cancer) and LO2 (normal human hepatocytes).” for “experiments.”

[16] = test system: Taxol-resistant MCF-7 cancer cells; experiment: MTT cytotoxicity, taxol-resistant MCF-7; type: cell-based
Experimental: as §1, §3

Hep 3B (liver cancer) = experiment: MTT cytotoxicity assay, Hep3B; type: cell-based; conditions: 72 h
Experimental: as §1, with “experiments. Cells include HeLa cells (cervical cancer), MCF-7 (breast cancer), H1299, H1975, A549 and LLC-1 (lung cancer), HepG2 and Hep3B (liver cancer) and LO2 (normal human hepatocytes).” for “experiments.”

HepG2 (liver cancer) = experiment: MTT cytotoxicity assay, HepG2; type: cell-based; conditions: 72 h
Experimental: as §1, with “experiments. Cells include HeLa cells (cervical cancer), MCF-7 (breast cancer), H1299, H1975, A549 and LLC-1 (lung cancer), HepG2 and Hep3B (liver cancer) and LO2 (normal human hepatocytes).” for “experiments.”

[17] = test system: LO2 (normal human hepatocytes); experiment: MTT cytotoxicity assay, LO2; type: cell-based; conditions: 72 h
Experimental: as §1, with “experiments. Cells include HeLa cells (cervical cancer), MCF-7 (breast cancer), H1299, H1975, A549 and LLC-1 (lung cancer), HepG2 and Hep3B (liver cancer) and LO2 (normal human hepatocytes).” for “experiments.”

Cc1ccnc(-c2cc(C)ccn2)c1.Cc1ccnc(-c2cc(C)ccn2)c1.Cc1ccnc(-c2cc(C)ccn2)c1.[Cl-].[Cl-].[Cl-].[Co+3] [complex (IV)-Cl]
reduction in body weight [1]: no significant reduction in body weight

F[P-](F)(F)(F)(F)F.F[P-](F)(F)(F)(F)F.[Co+2].c1ccc(-c2ccccn2)nc1.c1ccc(-c2ccccn2)nc1.c1ccc(-c2ccccn2)nc1 [complex (V), [Co^II(N^N)3](PF6)2]
IC50 [2]: 29.9 µM
IC50 (H1975 (lung cancer)): 17 µM
IC50 [3]: 24.2 µM
IC50 ([4]; OV2008/C13, MTT, 72 h): 14.9 µM
Resistant Factor ([4]; OV2008/C13 over OV2008): 0.79
IC50 [5]: 29.9 µM
IC50 (MCF-7 (breast cancer)): 15.8 µM
IC50 (LLC-1 (lung cancer)): 17.2 µM
Resistant Factor ([6]; HCT116 p53^−/− over HCT116 p53^+/+): 0.85
IC50 ([6]; MTT, 72 h): 29.1 µM
IC50 ([7]; A2780, MTT, 72 h): 31.6 µM
Resistant Factor ([7]; A2780, cisplatin-resistant over cisplatin-sensitive): 1.10
IC50 ([8]; SGC-7901, MTT, 72 h): 29.9 µM
Resistant Factor ([8]; SGC-7901, cisplatin-resistant over cisplatin-sensitive): 1.00
IC50 [9]: 34.3 µM
IC50 [10]: 11.4 µM
IC50 (A549 (lung cancer)): 26.3 µM
IC50 [11]: 28.8 µM
IC50 ([12]; HCT8, MTT, 72 h): 7.78 µM
Resistant Factor ([12]; HCT8, IC50 taxol-resistant over IC50 taxol-sensitive): 0.68
IC50 ([13]; A549, MTT, 72 h): 7.85 µM
Resistant Factor ([13]; A549, IC50 taxol-resistant over IC50 taxol-sensitive): 0.26
IC50 [14]: 13.4 µM
IC50 [15]: 18.9 µM
IC50 (H1299 (lung cancer)): 9.4 µM
IC50 ([16]; MCF-7, MTT, 72 h): 16.8 µM
Resistant Factor ([16]; MCF-7, IC50 taxol-resistant over IC50 taxol-sensitive): 1.25
IC50 (Hep 3B (liver cancer)): 6.92 µM
IC50 (HepG2 (liver cancer)): 13.3 µM
IC50 [17]: 33.6 µM
